Experimental data published in patent US7341867B2, “Human preprotachykinin gene promoter” (University of Medicine & Dentistry of New Jersey, priority 1999, dated 2008).

B1: IL-1a: cytokine IL-1α obtained from Hoffman LaRoche (protein, UniProt P01583 113-271, looked up)
Interleukin-1 alpha: SAPFSFLSNVKYNFMRIIKYEFILNDALNQSIIRANDQYLTAAALHNLDEAVKFDMGAYKSSKDDAKITVILRISKTQLYVTAQDEDQPVLLKEMPEIPKTITGSETNLLFFWETHGTKNYFTSVAHPNLFIATKQDYWVCLAGGPPSITDFQILENQA

Tests used:
BT474 = assay: Clonogenic assay, proliferation of breast cancer cell line; format: cell-based; conditions: 1 mM antagonist, 2 weeks; for # of colonies/10^3 cells (±SD): methyl cellulose matrix
Experimental: (§1) Clonogenic assays studied the proliferation of breast cancer cell lines. Duplicate cultures were performed with 10^3 cells/ml in 1.2% methylcellulose matrix that contained various concentrations (between about 100 to 0.001 mM) of NK-1, NK-2 or (NK-1+NK-2) antagonists. Baseline cultures contained media alone. For each cell line, the assay contained the appropriate culture media. Cultures were incubated for 2 wk at 37° C. This was followed by enumeration of colonies that contained more than 10 cells. In a highly preferred embodiment, the concentration of antagonist is 1 nM.
(§2) Increased expression of PPT-I and NK-1 in breast cancer cells (Tables 1 and 2) led to the next set of experiments. A functional role for these genes in breast cancer is established by determining whether PPT-I peptides, endogenously produced by breast cancer cells, can induce their proliferation through autocrine and/or paracrine mechanisms. This question was addressed in six different experiments using clonogenic assay. […] NK-1 or NK-2 antagonists blunted breast cancer cell proliferation by approximately […] when compared to cultures with media alone (Table 4). […] There was no significant difference (p>0.5) in cell proliferation when normal mammary epithelial cells (MCF12A and H5578Bst) were cultured with the antagonists. […] Reduced colony formation was not due to necrosis since >99% of the cells were trypan blue negative in suspension cultures, performed for two weeks with antagonists.

MDAMB-330 = assay: as above; format: cell-based; conditions: 1 mM antagonist, 2 weeks; for # of colonies/10^3 cells (±SD): methyl cellulose matrix
Experimental: as §1, §2

ZR7530 = assay: as above; format: cell-based; conditions: 1 mM antagonist, 2 weeks; for # of colonies/10^3 cells (±SD): methyl cellulose matrix
Experimental: as §1, §2

Du4475 = assay: as above; format: cell-based; conditions: 1 mM antagonist, 2 weeks; for # of colonies/10^3 cells (±SD): methyl cellulose matrix
Experimental: as §1, §2

T47D = assay: as above; format: cell-based; conditions: 1 mM antagonist, 2 weeks; for # of colonies/10^3 cells (±SD): methyl cellulose matrix
Experimental: as §1, §2

Hs578Bst = assay: Clonogenic assay, nontransformed mammary epithelial cells; format: cell-based; conditions: 1 mM antagonist, 2 weeks; for # of colonies/10^3 cells (±SD): methyl cellulose matrix
Experimental: as §1, §2

MCF12A = assay: as above; format: cell-based; conditions: 1 mM antagonist, 2 weeks; for # of colonies/10^3 cells (±SD): methyl cellulose matrix
Experimental: as §1, §2

[1] = system: PPT-I promoter (Upstream/N0); assay: Luciferase reporter gene assay, pGL3-Upstream/N0 in transfected bone marrow stroma; format: cell-based, human
Experimental: (§3) Transfected bone marrow stroma was stimulated with optimal concentrations of IL-1α (2.5 ng/ml), SCF (8 ng/ml) or 1 nM substance P, SP (Sigma, St Louis, Mo.) and/or 10 nM NK-1-specific antagonist (CP-99,994) in α-MEM with 2% FCS. In other embodiments, bone marrow stroma was stimulated with 5 μg/ml forskolin, FK (Sigma) for 2 and 5 h. SCF was purchased from R&D Systems (Minneapolis, Minn.) and IL-1α was obtained from Hoffman LaRoche, Nutley, N.J. Pfizer, Inc. (Groton, Conn.) provided CP-99,994. Substance P and CP-99,994 were dissolved and stored as described in Ramewshwar et al (1996), supra. Optimal parameters were determined with dose-response and time-course studies.
pGL3-basic with inserts of different fragments from PPT-I-p1.2 was co-transfected with pβ-gal-Control (0.5 μg each) in 80% confluent bone marrow stroma using SuperFect (Qiagen, Valencia, Calif.). After 48 h cells were scraped in 30 μl 250 mM Tris (pH 8.0) and then lysed by freezing and thawing in a dry ice/ethanol bath. Cell-free lysates (24 μl) were obtained by centrifugation at 15,000 g for 5 min at 4° C. and then diluted with 5× cell culture lysis buffer (Promega). Luciferase and β-gal activities were quantitated with 10 μl of lysates using Luciferase assay system (Promega) and Luminescent β-galactosidase detection kit II (Clontech) respectively. In the experimental model, the ratios of Luciferase/β-gal in cells transfected with vector alone ranged from 0.18 to 0.19 and was normalized to 1. Because cytokines induce the promoter upstream of β-gal, in cytokine-stimulated cells, luciferase activity was presented/mg of total protein the levels normalized with stroma transfected with vector alone. Total protein was determined using standard techniquees well known in the art.
Mutations were performed with a mutagenesis kit (Stratagene, La Jolla, Calif.). The desired mutant sequences (Table 1) were synthesized within 40 nt in the forward and reverse directions and then used in PCR with pGL3 containing wild type Upstream/N0. After PCR amplification, mutation was verified by identification of Apa L1 within CRE-like mutant and the loss of Xho 1 in CRE mutant.

β-PPT-I mRNA = assay: Quantitative RT-PCR in stimulated bone marrow stroma; format: cell-based, human; conditions: for β-PPT-I (molecules/μg total RNA): 8 ng/ml SCF and/or 10 nM CP-99,994
Experimental: (§4) In a second embodiment of the present invention, bone marrow stroma was stimulated in serum-free α-MEM supplemented with Insulin-transferrin-selenium-A (Life Technologies). Quantitative RT-PCR with total RNA, extracted from bone marrow stroma and construction of standard DNA was performed as described in Singh, D., supra. The end sequences of the standard DNA contained gene-specific sequences that are complementary for the reaction primers. The primers in the standard DNA flank neutral DNA. Total RNA (2 μg) was reverse transcribed and 200 ng cDNA used in PCR with specific oligonucleotide primers for PPT-I, NK-1 or NK-2. Standard DNA, log10 fold dilutions, ranged between 10^−2 to 10^−6 attomole/L. Each unknown sample was assayed with a particular concentration of standard DNA in the same reaction tube. PCR products (10 μl) were separated by electrophoresis on 1.5% agarose containing ethidium bromide and the densities of the DNA bands quantitated with a Fluorimager (Molecular Dynamics, Sunnyvale, Calif.) and then analyzed with ImageQuant software. A standard curve was established for each unknown sample: band densities of unknown/standard DNA vs. Log10 standard DNA concentration was used to determine the concentration of RNA molecules in the unknown samples. The concentration of the unknown sample was selected at the concentration in which the ratio of the unknown and standard were equivalent.
as §3
Confluent bone marrow stroma was stimulated with 25 ng/ml rhIL-1α or 10 ng/ml SCF for 24 h. Poly A RNA was isolated from total RNA by selection (2×) on oligo-dT cellulose (Life Technologies). The cellulose column was washed once with 10 mM Tris, pH 7.0; 0.5 M NaCl; […] and once with 10 mM Tris, pH 7.0; 0.2 M NaCl; […]. Poly A RNA was eluted with 10 mM Tris (pH 7.0) and […]. RNA was precipitated by standard techniques and then resuspended in DEPC-treated water. The purity was verified by the absence of rRNA.

NK-1 mRNA = assay: as above; format: cell-based, human; conditions: BM stroma; 8 ng/ml SCF or 2.5 ng/ml IL-1a; 16 h; serum-free α-MEM
Experimental: as §4, §3

NK-2 mRNA = assay: as above; format: cell-based, human; conditions: BM stroma; 8 ng/ml SCF or 2.5 ng/ml IL-1a; 16 h; serum-free α-MEM
Experimental: as §4, §3

| Molecule | percentage of cells cultured in media alone (BT474) [%] | # of colonies/10^3 cells (±SD) (BT474) [colonies/10^3 cells] | percentage of cells cultured in media alone (MDAMB-330) [%] | # of colonies/10^3 cells (±SD) (MDAMB-330) [colonies/10^3 cells] | percentage of cells cultured in media alone (ZR7530) [%] | # of colonies/10^3 cells (±SD) (ZR7530) [colonies/10^3 cells] | percentage of cells cultured in media alone (Du4475) [%] | # of colonies/10^3 cells (±SD) (Du4475) [colonies/10^3 cells] | percentage of cells cultured in media alone (T47D) [%] | # of colonies/10^3 cells (±SD) (T47D) [colonies/10^3 cells] | # of colonies/10^3 cells (±SD) (Hs578Bst) [colonies/10^3 cells] | percentage of cells cultured in media alone (MCF12A) | # of colonies/10^3 cells (±SD) (MCF12A) [colonies/10^3 cells] | β-PPT-I (molecules/μg total RNA) (β-PPT-I mRNA; BM stroma, 1 nM SP, 16 h) | further results |
| --- | --- | --- | --- | --- | --- | --- | --- | --- | --- | --- | --- | --- | --- | --- | --- |
| CC(=O)NC1(c2ccccc2)CCN(CC[C@H](CN(C)C(=O)c2ccccc2)c2ccc(Cl)c(Cl)c2)CC1 [SR48968] | 36 | 65 ± 8 | 38 | 64 ± 4 | 36 | 60 ± 10 | 38 | 60 ± 5 | 43 | 65 ± 7 | 210 ± 11 | 95% | 200 ± 9 |  | percentage of cells cultured in media alone (Hs578Bst): 105% |
| COc1ccccc1CN[C@H]1CCCN[C@H]1c1ccccc1 [CP-99,994] |  |  |  |  |  |  |  |  |  |  |  |  |  | <1 | luciferase activity in SCF-stimulated cells in the presence of the antagonist ([1]; 10 nM CP-99,994, SCF-stimulated transfected stroma): significantly reduced; luciferase activity, antagonist alone compared to transfectants with vector alone ([1]; antagonist alone): did not affect; reduction of SP-induced β-PPT-I (β-PPT-I mRNA; 10 nM CP-99,994, 1 nM SP): 7 fold; effect on induction of endogenous PPT-I by SCF (β-PPT-I mRNA; BM stroma, SCF + CP-99,994): bluned |
| substance P (RPKPQQFFGLM) [SP, major PPT-I peptide, preferred ligand for NK-1 (Sigma)] |  |  |  |  |  |  |  |  |  |  |  |  |  | 284 ± 12 |  |
| COc1ccccc1CN[C@H]1C2CCN(CC2)[C@H]1C(c1ccccc1)c1ccccc1 [CP96,345] | 39 | 70 ± 5 | 38 | 65 ± 5 | 41 | 68 ± 8 | 39 | 63 ± 6 | 40 | 60 ± 4 | 201 ± 12 | (94%) | 198 ± 18 |  |  |
| B1 |  |  |  |  |  |  |  |  |  |  |  |  |  |  | increase in luciferase activities compared to unstimulated cells ([1]; pGL3-Upstream/N0 wild type, optimal SCF or IL-1a, 10 h): 3 fold; induction of luciferase in cells transfected with the double mutants ([1]; pGL3-Upstream/N0 with mutant CRE and CRE-like): no significant induction; NK-1 mRNA (NK-1 mRNA): 8106 ± 91 Molecules/μg total RNA; NK-2 mRNA (NK-2 mRNA): 968 ± 26 Molecules/μg total RNA; β-PPT-I mRNA (β-PPT-I mRNA; BM stroma, 8 ng/ml SCF or 2.5 ng/ml IL-1a, 16 h, serum-free α-MEM): 4849 ± 121 Molecules/μg total RNA; molecules of β-PPT-I/μg poly A (β-PPT-I mRNA; poly A RNA from stroma stimulated with 25 ng/ml rhIL-1α or 10 ng/ml SCF for 24 h, n=6): 250,100±980 molecules of β-PPT-I/μg poly A |
